# Results reported in PMC6312359, “Diisopropylphenyl-imidazole (DII): A new compound that exerts anthelmintic activity through novel molecular mechanisms” (PLoS Neglected Tropical Diseases, 2018).
# Several values for one entry are separate records, joined by “and”; a condition that tells them apart may be missing. Equal values may be shown once.
# Legend:
# E. coli OP50 = experiment: OP50 growth in screening wells (qualitative); format: cell-based, Escherichia coli; conditions: 150 μg/ml, qualitative observation
# Text: During the screening assays, we qualitatively noticed that OP50 growth was inhibited in wells containing MI. This effect was not observed with DII. To quantify this observation, we determined minimum inhibitory concentration (MIC) and minimum bactericidal concentration (MBC) of both compounds in E. coli cultures (Fig 2A). […] Similar values were obtained when we performed these assays on S. aureus, a Gram-positive bacteria (Fig 2A). […] As we are here screening for specific anthelmintic activity, we restricted our further analysis to compounds that appear to exert nematicidal action without obvious lethal effects on other organisms. Therefore, we focused our studies only on DII, relegating the evaluation of MI as a potential anthelmintic drug.
# Drosophila melanogaster = Drosophila melanogaster larval viability; format: in vivo; conditions: 300–1200 μM in food, about 40 h of exposure
# Experimental: All experiments were done at 25°C, under a 12:12 dark:light cycle using the w^1118 strain. Mated females were allowed to lay eggs for 4 h on apple juice egg laying plates supplemented with a thin layer of normal fly food. 2 h after the initiation of egg laying was considered time "0". 30–40 late L2 larvae (66 h after egg laying) were transferred from the plates to tubes containing 3 ml of fly food with 300, 600 and 1200 μM DII or the corresponding concentration of dimethylsulfoxide (DMSO, molecular biology grade, AppliChem). Under these conditions, larvae were exposed to DII until they left the food to pupariate about 40 h later. Larval viability was calculated as the percentage of larvae that reached the pupal stage.
# To add drugs, fly food was melted and cooled to 60°C, 3 ml of food were dispensed in tubes and an appropriate volume of DMSO or drug was added and thoroughly mixed. Control tubes without DMSO and […] were prepared following the same procedure. The experiment was independently repeated at least three times.
# C. elegans [1] = experiment: Toxicity at early developmental stages (eggs, hatching, developmental rate); format: in vivo, Caenorhabditis elegans
# Experimental: Briefly, gravid worms were collected and exposed to an alkaline hypochlorite solution (0.5 M NaOH and 1% NaOCl) to destroy adult worm tissues (eggs are resistant to bleach due to their chitin eggshell). Eggs were subsequently isolated with a sterile 60% sucrose solution and seeded on 35 mm NGM plates containing DII (100, 300 and 600 μM) or DMSO as a control. Hatched animals were quantified after 48 h. The results were expressed as follows: Number of living animals x 100/ Total number of eggs seeded. This experiment was independently repeated three times.
# For ovicidal assessment, isolated eggs were seeded in NGM plates containing DII (600 μM) and video-recorded for 12 h. An egg was considered as non-viable if no hatching was observed during the recorded time.
# The number of animals at different developmental stages (L1-L3, L4, and adults) was counted at 24, 48 and 72 h. The results were expressed as the number of animals at a given stage x 100/ Total number of living worms at that time point. This experiment was independently repeated three times.
# [2] = tested on: Staphylococcus aureus ATCC 25923; experiment: Minimum inhibitory and bactericidal concentrations, microdilution; format: cell-based; conditions: ATCC25923, 24 h at 37°C
# Experimental: (§1) The strains used in this study were Escherichia coli ATCC 25922 and Staphylococcus aureus ATCC 25923, kindly provided by Dr. Ziegler (Bacillus Genetic Stock Center, The Ohio State University). Stocks were stored in Mueller Hinton Broth (MHB, Biokar Diagnostics, France) supplemented with glycerol 20% at -70°C. Before running each test, the strains were incubated for 48 h at 37°C in MHB. Finally, the bacterial strains were sub-cultured in MHB at 37°C for 24 h. The solutions of antimicrobial agents and imidazolium salts were prepared following the Clinical and Laboratory Standards Institute (CLSI) guidelines for determination of Minimum Inhibitory Concentrations by the microdilution method (CLSI 2009). […] Cultures were incubated as described above and adjusted to OD625nm ~ 0.08–0.13 by the direct colony suspension method in saline water and finally adjusted to 2–8 10^5 CFU/ml by diluting 1:150 in MHB before testing. A volume of 100 μl of each sample dilution in saline water was transferred to the microplate well. Finally, an equal volume of the inoculum was added. The MIC was the lowest concentration at which there was no visible growth when compared with controls after 24 h at 37°C. To assess the minimum bactericidal concentration (MBC), 20 μl aliquots were taken from the wells where no visible growth was observed, seeded on petri dishes and covered with MH agar (MHA) at 45°C. The compounds were considered bactericidal at the concentration at which no visible colony was observed on the plate after 24 h at 37°C. All conditions were run at least in duplicate. The results were obtained from at least 3 independent experiments.
# [3] = tested on: Escherichia coli ATCC 25922; experiment: as above; format: cell-based; conditions: 24 h at 37°C
# Experimental: as §1
# C. elegans [4] = experiment: Recovery assays; format: in vivo, Caenorhabditis elegans; conditions: 600 μM, 4 and 8 h of exposure, scored 24 h later
# Experimental: To evaluate the recovery capacity of worms treated with DII, ~100 L4 worms were transferred to NGM plates containing DII (600 μM). After 4 and 8 h of exposure, those animals that survived were transferred to regular NGM plates. Worm viability was scored 24 h later. Results are expressed as the percentage of alive animals 24 h after being transferred to regular NGM plates. The experiment was independently repeated three times.
# C. elegans [5] = experiment: Egg-laying assays; format: in vivo, Caenorhabditis elegans; conditions: gravid worms
# Experimental: Age-synchronized gravid worms were transferred to solid NGM plates containing different drug concentrations (100–300 μM). Each concentration was evaluated in triplicate and DMSO was used as a control. After 1 h, the number of laid eggs per worm was counted. This experiment was independently repeated three times.
# [6] = tested on: C. elegans mutant strains; experiment: DII nematicidal effect on mutant strains; format: in vivo, Caenorhabditis elegans
# Experimental: To evaluate DII nematicidal effects on mutant strains two different conditions were tested: i) ~40 L4s were exposed to DII (600 μM) in NGM plates and survival was scored at 4, 8, 24, 48 and 72 h, ii) ~40 L4s were exposed to 50 μM for 96 h and survival was subsequently scored. […] At least three independent experiments were analyzed.
# C. elegans [7] = experiment: Body length measurements; format: in vivo, Caenorhabditis elegans; conditions: 600 μM, 2 h
# Experimental: Vehicle (0.75% DMSO) was used as a control. After 2 h, images were acquired and body length was measured using FIJI-ImageJ software. At least three independent experiments were analyzed.
# [8] = eggs exposed to 600 μM, 24, 48 and 72 h
# [9] = 600 μM, short exposure times, no difference after 48 h
compound,measurement,setting,value
CC(C)c1cccc(C(C)C)c1-n1ccnc1 [Compound 11],OP50 growth in screening wells,E. coli OP50,not observed
same,larval viability (larvae that reached the pupal stage),Drosophila melanogaster,does not affect Drosophila larval viability
same,eggs hatched,"C. elegans [1]; 600 μM, within 12 hours, video recording",100%
same,"developmental rate, unc-29 null mutants",C. elegans [1]; [8],delays the development
same,"developmental rate, wild-type",C. elegans [1]; [8],delays nematode development
same,number of viable animals relative to eggs seeded,"C. elegans [1]; eggs exposed to 100, 300 and 600 μM, 48 h",significantly reduced
same,survivors that were adults,"C. elegans [1]; eggs on DII-containing plates (600 μM), 72 h",less than 5%
same,MBC,[2]; read-out: MBC S. aureus,> 256 µg/mL
same,MIC,[2]; read-out: MIC S. aureus,256 µg/mL
same,MIC E. coli,[3]; listed as DII (11),256 µg/mL
same,MBC,"[3]; Escherichia coli, ATCC25922",> 256 µg/mL
same,MIC,"[3]; Escherichia coli, ATCC25922",256 µg/mL and 1110 µM
same,recovery of survivors after transfer to regular NGM plates,C. elegans [4],reversible
same,"laid eggs in 1 h, fold more than controls",C. elegans [5]; 100 μM,did not produce an increase
same,reduction in the number of laid eggs,"C. elegans [5]; 300 μM, 1 h",3.6 fold
same,"survival of unc-29 null mutant strain, long exposure","[6]; 50 μM, 96 h",resistant
same,survival of lev-8 mutants vs wild-type,"[6]; 600 μM, 4-72 h",as sensitive to DII as the wild-type
same,survival of unc-63 mutants vs wild-type,"[6]; 600 μM, 4-72 h",as sensitive to DII as the wild-type
same,survival of lev-1 mutants vs wild-type,[6]; [9],slightly resistant
same,survival of unc-38 mutants vs wild-type,[6]; [9],slightly resistant
same,survival of unc-29(e1072)I null mutants vs wild-type,"[6]; CB1072, 600 μM, 4-72 h, listed as DII",extremely resistant
same,DII-mediated death in muscle unc-29 rescue strain OAR61,"[6]; myo-3::unc-29, unc-29(e1072)I, 600 μM",completely restores
same,body length,C. elegans [7],no significant changes
